In patent publication US8206732B2, “Pyrithione biocides enhanced by silver, copper, or zinc ions” (Arch Chemicals, Inc., priority 1999, dated 2012):

What was measured:
[1] = test system: Aspergillus niger ATCC 6275; assay: MIC in Tryptic Soy Broth, microtiter (Example 1); format: cell-based; details: 28° C.
[2] = test system: mixed bacteria (Pseudomonas aeruginosa 9027, Escherichia coli 8739, Pseudomonas fluorescens 12201, Pseudomonas rubescens 12202, Pseudomonas putida); assay: Various mixtures of NaPT and Zn(II) against bacteria in 5% metalworking fluid (Example 8, Table 10a); format: cell-based, Pseudomonas spp.
[3] = test system: Fusarium sp.; assay: Checkerboard MIC test, pyrithiones with zinc salts; format: cell-based; details: pyrithione alone or pyrithione concentration in the inhibitory mixture; TSB, 28 C, 5 days
Experimental: Mixtures of pyrithione and zinc or silver in various proportions were tested for relative efficacy by a modification of the procedure described by Dougherty, et al.
Equal volumes of bacteria (10^6 cells/ml) or fungi (10^5 spores/ml) were added to each microtiter plate well. The plates were incubated at 28 C for 3 days (bacteria) or 5 days (fungi), and the minimum inhibitory concentration (MIC) of biocide was determined. The Fractional Inhibitory Concentration (FIC=concentration of biocide in an inhibitory mixture divided by the MIC of the pure biocide) was determined, and the FIC Index (sum of the two FIC's) was calculated. The type of interaction was categorized according to the magnitude of the Index: Synergistic (<1), Additive (1), or Antagonistic (>1).

[4] = test system: Pseudomonas aeruginosa NCIMB 6749; assay: Zone of inhibition test (paper disc on TSA); format: cell-based; details: 6.5 mm discs; 0.135% pyrithione, 0.1% ZnCl2 or both; 28° C., 24 hr
[5] = test system: Escherichia coli 10536; assay: Checkerboard MIC test, pyrithiones with silver salts; format: cell-based; details: NaPT alone or in the inhibitory mixture with silver salt; TSB pH 7.3, 35° C., 1 to 2 days
[6] = test system: E. coli 8739 free-living cells; assay: Viable free-living cells in bulk metalworking fluid (Example 5); format: cell-based, Escherichia coli; details: 100 PPM NaPT, 10 PPM Zn (II) or both, 4 days after treatment

Question: Which “MIC NaPT (with 0.5 ppm Cu)” value ([1]; TSB with 0.5 ppm Cu (II), 7-8 days) does the source give for `[Na+].[O-][n+]1ccccc1[S-]` [NaPT, sodium pyrithione] here?
Answer: Its value is 8 ppm.

Question: What about the MIC ([1]; TSB, incubated 7-8 days, single agent (NaPT without Cu)) of the same molecule?
Answer: The MIC was 128 ppm.

Question: And the Bacteria/ml ([2]; semi-synthetic, NaPT 100 PPM, Day 1)?
Answer: The Bacteria/ml was 1.8 × 10^5 Bacteria/ml.

Question: What about the Bacteria/ml ([2]; semi-synthetic, NaPT 100 PPM, Day 1, tube of the Day 1/Day 4 series) of the same molecule?
Answer: The Bacteria/ml was 1.7 × 10^4 Bacteria/ml.

Question: What about the Bacteria/ml ([2]; semi-synthetic, NaPT 100 PPM, Day 2) of the same molecule?
Answer: Its Bacteria/ml is 1.9 × 10^5 Bacteria/ml.

Question: And the Bacteria/ml ([2]; semi-synthetic, NaPT 100 PPM, Day 4)?
Answer: The Bacteria/ml was 1.2 × 10^4 Bacteria/ml.

Question: And the Bacteria/ml ([2]; semi-synthetic, NaPT 100 PPM, Day 7)?
Answer: Its Bacteria/ml is 510 Bacteria/ml.

Question: And the Bacteria/ml ([2]; semi-synthetic, NaPT 300 PPM, Day 1)?
Answer: Its Bacteria/ml is 1.2 × 10^5 Bacteria/ml.

Question: And the Bacteria/ml ([2]; semi-synthetic, NaPT 300 PPM, Day 2)?
Answer: The Bacteria/ml was 0 Bacteria/ml.

Question: What about the Bacteria/ml ([2]; semi-synthetic, NaPT 300 PPM, Day 7) of the same molecule?
Answer: The Bacteria/ml was 0 Bacteria/ml.

Question: And the Bacteria/ml ([2]; semi-synthetic, NaPT 500 PPM, Day 2)?
Answer: Its Bacteria/ml is 0 Bacteria/ml.

Question: What about the Bacteria/ml ([2]; semi-synthetic, NaPT 500 PPM, Day 7) of the same molecule?
Answer: The Bacteria/ml was 0 Bacteria/ml.

Question: What about the Bacteria/ml ([2]; soluble oil, NaPT 100 PPM, Day 1) of the same molecule?
Answer: Its Bacteria/ml is 2.4 × 10^5 Bacteria/ml.

Question: And the Bacteria/ml ([2]; soluble oil, NaPT 100 PPM, Day 1, tube of the Day 1/Day 4 series)?
Answer: Its Bacteria/ml is 5.9 × 10^6 Bacteria/ml.

Question: What about the Bacteria/ml ([2]; soluble oil, NaPT 100 PPM, Day 2) of the same molecule?
Answer: Its Bacteria/ml is 6.0 × 10^3 Bacteria/ml.

Question: And the Bacteria/ml ([2]; soluble oil, NaPT 100 PPM, Day 4)?
Answer: The Bacteria/ml was 1.5 × 10^6 Bacteria/ml.

Question: What about the Bacteria/ml ([2]; soluble oil, NaPT 100 PPM, Day 7) of the same molecule?
Answer: The Bacteria/ml was 2.0 × 10^4 Bacteria/ml.

Question: And the Bacteria/ml ([2]; soluble oil, NaPT 300 PPM, Day 1)?
Answer: Its Bacteria/ml is 7.1 × 10^4 Bacteria/ml.

Question: What about the Bacteria/ml ([2]; soluble oil, NaPT 300 PPM, Day 2) of the same molecule?
Answer: The Bacteria/ml was 9.0 × 10^3 Bacteria/ml.

Question: What about the Bacteria/ml ([2]; soluble oil, NaPT 300 PPM, Day 7) of the same molecule?
Answer: The Bacteria/ml was 0 Bacteria/ml.

Question: What about the Bacteria/ml ([2]; soluble oil, NaPT 500 PPM, Day 2) of the same molecule?
Answer: Its Bacteria/ml is 450 Bacteria/ml.

Question: And the Bacteria/ml ([2]; soluble oil, NaPT 500 PPM, Day 7)?
Answer: The Bacteria/ml was 0 Bacteria/ml.

Question: What about the Bacteria/ml ([2]; synthetic, NaPT 100 PPM, Day 1) of the same molecule?
Answer: Its Bacteria/ml is 2.9 × 10^6 Bacteria/ml.

Question: What about the Bacteria/ml ([2]; synthetic, NaPT 100 PPM, Day 1, tube of the Day 1/Day 4 series) of the same molecule?
Answer: Its Bacteria/ml is 2.1 × 10^6 Bacteria/ml.

Question: What about the Bacteria/ml ([2]; synthetic, NaPT 100 PPM, Day 2) of the same molecule?
Answer: Its Bacteria/ml is 1.7 × 10^5 Bacteria/ml.

Question: And the Bacteria/ml ([2]; synthetic, NaPT 100 PPM, Day 4)?
Answer: The Bacteria/ml was 2.0 × 10^5 Bacteria/ml.

Question: And the Bacteria/ml ([2]; synthetic, NaPT 100 PPM, Day 7)?
Answer: Its Bacteria/ml is 1.5 × 10^4 Bacteria/ml.

Question: And the Bacteria/ml ([2]; synthetic, NaPT 300 PPM, Day 1)?
Answer: Its Bacteria/ml is 5.0 × 10^4 Bacteria/ml.

Question: And the Bacteria/ml ([2]; synthetic, NaPT 300 PPM, Day 2)?
Answer: The Bacteria/ml was 4.0 × 10^3 Bacteria/ml.

Question: What about the Bacteria/ml ([2]; synthetic, NaPT 300 PPM, Day 7) of the same molecule?
Answer: Its Bacteria/ml is 0 Bacteria/ml.

Question: What about the Bacteria/ml ([2]; synthetic, NaPT 500 PPM, Day 1) of the same molecule?
Answer: The Bacteria/ml was 1.2 × 10^5 Bacteria/ml.

Question: What about the Bacteria/ml ([2]; synthetic, NaPT 500 PPM, Day 2) of the same molecule?
Answer: The Bacteria/ml was 1.0 × 10^3 Bacteria/ml.

Question: And the Bacteria/ml ([2]; synthetic, NaPT 500 PPM, Day 7)?
Answer: Its Bacteria/ml is 50 Bacteria/ml.

Question: And the “MIC Pyrithione” value [3]?
Answer: The value was 411 ppm.

Question: What about the “Zone of Inhibition” value [4] of the same molecule?
Answer: The value was 8 mm.

Question: And the “MIC NaPT” value [5]?
Answer: Its value is 16 ppm.

Question: What about the viable free-living microorganisms ([6]; 5% solub. oil MWF) of the same molecule?
Answer: The viable free-living microorganisms was 5.3 × 10^7 cells/ml.

Question: What about the viable free-living microorganisms ([6]; 10% TSB) of the same molecule?
Answer: Its viable free-living microorganisms is 9.1 × 10^8 cells/ml.
